For experiment [1], the system named is endogenous AR-regulated gene expression, LNCaP cells. Nature of the experiment: qRT-PCR of androgen-responsive genes in LNCaP cells. The format is cell-based, human. The following applies: No DHT = 1, 3 nM DHT alone or with 1 uM BIC, 100 nM PP or 100 nM HH. As for the experimental part: LAPC4 and LNCaP cells were grown in the presence or absence of 3 nM DHT in charcoal-stripped media, with or without the inhibitors. RNA was harvested using an RNAeasy kit (Qiagen) and reverse transcribed (MMLV-RT, Invitrogen). Real-time PCR was carried out on a 7300 Real Time PCR System (Applied Biosystems) using SYBR green as the detecting dye and Rox as the reference dye. The androgen responsive genes kalikrein 3, or PSA (KLK3) [Cleutjens, K. B., et al., Two androgen response regions cooperate in steroid hormone regulated activity of the prostate-specific antigen promoter. J Biol Chem, 1996. 271(11): p. 6379-88; Nelson, P. S., et al., The program of androgen-responsive genes in neoplastic prostate epithelium. Proc Natl Acad Sci USA, 2002. 99(18): p. 11890-5), metalloproteinase 16 (MMP16) (Nelson, P. S., et al., The program of androgen-responsive genes in neoplastic prostate epithelium. Proc Natl Acad Sci USA, 2002. 99(18): p. 11890-5), transmembrane protease serine 2 (TMPRSS2) (Nelson, P. S., et al., The program of androgen-responsive genes in neoplastic prostate epithelium. Proc Natl Acad Sci USA, 2002. 99(18): p. 11890-5; […] Vaarala, M. H., et al., Expression of transmembrane serine protease TMPRSS2 in mouse and human tissues. J Pathol, 2001. 193(1): p. 134-40), FK506-binding immunophilin 51 (FKBP51) (Nelson, P. S., et al., The program of androgen-responsive genes in neoplastic prostate epithelium. Proc Natl Acad Sci USA, 2002. 99(18): p. 11890-5; Amler, L. C., et al., Dysregulated expression of androgen-responsive and nonresponsive genes in the androgen-independent prostate cancer xenograft model CWR22-R1. Cancer Res, 2000. 60(21): p. 6134-41; Velasco, A. M., et al., Identification and validation of novel androgen-regulated genes in prostate cancer. Endocrinology, 2004. 145(8): p. 3913-24; Magee, J. A., et al., Direct, androgen receptor-mediated regulation of the FKBP5 gene via a distal enhancer element. Endocrinology, 2006. 147(1): p. 590-8), G-protein coupled receptor RDC1 homolog, or chemokine orphan receptor 1 (RDC-1) (Nelson, P. S., et al., The program of androgen-responsive genes in neoplastic prostate epithelium. Proc Natl Acad Sci USA, 2002. 99(18): p. 11890-5), NK homeobox family member 3 (Nk×3.1) (Nelson, P. S., et al., The program of androgen-responsive genes in neoplastic prostate epithelium. Proc Natl Acad Sci USA, 2002. 99(18): p. 11890-5; Bieberich, C. J., et al., Prostate-specific and androgen-dependent expression of a novel homeobox gene. J Biol Chem, 1996. 271(50): p. 31779-82; […]) were all normalized to the transcription of the housekeeping ribosomal gene (RPL19). All samples were done in triplicate and separately normalized.
(In general: Real-time PCR tracks product formation cycle by cycle.)

The next experiment has as its system LNCaP cells. As to the kind of experiment: Cell proliferation (DNA content, DAPI), LNCaP. The following applies: 3 nM DHT, seven days, PP 100 nM, HH 100 nM, BiC 1 μM, hydrochloride. The format is cell-based, human. An excerpt:
LN-AR cells were created by retroviral infection of a high-expressing AR vector into LNCaP cells, and proliferate independent of androgen in cell culture, unlike their parental line (Chen, C. D., et al., Molecular determinants of resistance to antiandrogen therapy. Nat Med, 2004. 10(1): p. 33-9). HEK293 cells were used as a control. Cells were transferred to charcoal-stripped media two days before they were split and plated in quadruplicate at a density of approximately 20,000 cells/well in 48-well plates. […] Media were changed every day, using a single preparation to ensure consistent compound concentrations. Proliferation was determined by measuring the DNA content of the cells in each well. Each day, the cells in four wells were fixed in 100% cold methanol, followed by staining for 5 min at RT with 0.2 ng/mL 4′,6-diamidino-2-phenylindole (DAPI) in PBS. The cells were washed once in PBS, then read on a fluorescence plate reader using 365/439 excitation/emission wavelengths. LAPC4 and LNCaP cells proliferated to a much greater degree in the presence of DHT, while LN-AR cells proliferated in the presence and absence of DHT.

Entries after “also recorded” stand apart in the source; their conditions may differ. Where a name gives a salt, the structure may show the parent alone.

Turning to `Cc1nccc2c1[nH]c1cc(O)ccc12` [HH, harmol hydrochloride], in experiment [1], the “FKBP51 transcription (normalized to RPL19)” value is 1.90; the “KLK3 transcription (normalized to RPL19)” value is reported as 1.46; the “MMP16 transcription (normalized to RPL19), androgen-repressed gene” value stood at 1.02; the “Nkx3.1 transcription (normalized to RPL19)” value is 1.28. Further, in experiment [1], the “RDC1 transcription (normalized to RPL19), androgen-repressed gene” value is recorded as 1.22 and the “TMPRSS2 transcription (normalized to RPL19)” value came to 1.22. For the same molecule, the “Inhibition of cell growth” value with LNCaP cells is listed as “inhibited significantly; also recorded: exhibited growth-inhibitory properties”.
